Results from paper PMC11721617, “Novel isobavachalcone derivatives induce apoptosis and necroptosis in human non-small cell lung cancer H1975 cells” (Journal of Enzyme Inhibition and Medicinal Chemistry, 2023).
Like-named read-outs stand apart in the source and are kept apart here.

Assays:
[1] = test system: H1975 cells; assay: Detection of intracellular ROS (DCFH-DA, flow cytometry); format: cell-based, human
Protocol: Cells were seeded in 6-well plates at a density of 3 × 10^5 cells/well and incubated with different concentrations (0, 10, 20, 40, and 80 μM) of compound 16 or pre-treated with NAC (20 μM) incubated for 6 h, the cells were co-incubated with DCFH-DA for 20 min at 37° C in the dark. Finally, the intracellular ROS levels were measured using flow cytometry (Becton-Dickinson, Franklin Lakes, NJ, USA).

[2] = MTT assay, cytotoxic activity on normal hepatocytes; format: cell-based, mouse; details: Aml-12 cells (normal hepatocytes); normal mouse hepatocytes Aml-12 cells, 72 h
Protocol: (§1) Four cell lines (H1975, A549, PC9, and Aml-12) were cultured in RPMI 1640 medium containing 10% foetal bovine serum (FBS) and 1% penicillin/streptomycin in an atmosphere with 5% CO2 and 95% relative humidity at 37 °C.
(§2) Cell viability was examined using the MTT assay. The cells grown in the logarithmic phase were seeded in 96-well plates at a density of 5 × 10^3 per well. The cells were treated with various concentrations (0, 5, 10, 20, 40, and 80 μM) of the compound at different times, respectively. At the end of time point, MTT solution (5 mg/ml) was added to each well and incubated at 37 °C for 4 h. Next, the media was removed, and formazan was dissolved in DMSO. Finally, absorbance was measured with a microplate spectrophotometer at 490 nm (Synergy HT, BioTek, VT, USA).

[3] = test system: Aml-12 cells; assay: as above; format: cell-based, mouse; details: Aml-12 cells relative to H1975 cells
Protocol: as §1, §2

[4] = test system: H1975 cells; assay: ATP detection; format: cell-based, human; details: H1975, 10, 20, 40, and 80 μM, 6 h
Protocol: Cells were seeded in 6-well plates at a density of 3 × 10^5 cells/well and incubated with different concentrations (0, 10, 20, 40, and 80 μM) of compound 16 for 6 h. Afterwards, the cells were washed three times with PBS, lysed with RIPA buffer, and the lysates were centrifuged at 12 000 rpm for 5 min. The intracellular ATP levels were measured using a luminoskan luminometer (Thermo Scientific, Atlanta, GA, USA), according to the ATP assay kit’s protocol.

[5] = test system: PC9; assay: MTT assay, cytotoxic activity; format: cell-based; details: Homo sapiens, PC-9, PC9 cells, 72 h
Protocol: as §1, §2

[6] = test system: H1975 cells; assay: Flow cytometry with Annexin V/PI dual staining; format: cell-based, human; details: 24 h
Protocol: Cells were seeded (3 × 10^5 per well) in 6-well plates and incubated overnight. After adherence, the cells were treated with various concentrations (0, 10, 20, 40, and 80 μM) of compound 16 for 24 h. Furthermore, the cells were harvested, washed three times with PBS, and stained with Annexin V (FITC Annexin V) and propidium iodide (PI) staining solution for 30 min in the dark. The percentage of cell death was measured by flow cytometry (Becton-Dickinson, Franklin Lakes, NJ, USA).

[7] = test system: H1975 cells; assay: Colony-formation assay; format: cell-based, human; details: 10 days
Protocol: Cells were seeded at a density of 1.5 × 10^3 cells/well into 6-well plates. When colonies formed, the media was replaced with fresh media at various concentrations of compound 16 (0, 1, 2, and 4 μM) and incubated for 10 days. At the end of the incubation time, the cells were washed three times with PBS, fixed with 4% paraformaldehyde for 15 min, stained with crystal violet solution for 10 min, and photographed.

[8] = test system: A549; assay: MTT assay, cytotoxic activity; format: cell-based, human; details: A549 cells
Protocol: as §1, §2

[9] = test system: Bax, Bcl-2, Akt, Cyt C, caspase-9, caspase-3, RIP1, RIP3, p-RIP3, MLKL, p-MLKL in H1975 cells; assay: Western blotting of apoptosis- and necroptosis-related proteins; format: cell-based, human
Protocol: Cells were seeded in 100 mm dishes at a density of 3 × 10^6 cells/well and treated with different concentrations (0, 10, 20, 40, and 80 μM) of compound 16. After incubated for 24 h, the cells were harvested, and washed three times with PBS solution. Next, the cells were lysed with RIPA lysis buffer for 30 min on ice. Protein quantification was determined using the BCA protein assay kit. Equal amounts of proteins were separated by sodium dodecyl sulfate-polyacrylamide gel electrophoresis (SDS-PAGE) and transferred to PVDF membrane. The membrane was blocked with 5% non-fat milk and incubated with primary antibodies (Bax, Bcl-2, Akt, Cyt C, Caspase-9, Caspase-3, RIP1, RIP3, p-RIP3, MLKL, p-MLKL, and β-actin) for 2 h at room temperature, followed by the secondary antibodies for 2 h at room temperature. Finally, the blots were detected by a chemiluminescent gel imaging system (Bio-Rad, Hercules, CA, USA).

[10] = test system: H1975; assay: MTT assay, cytotoxic activity / cell viability; format: cell-based, human; details: for viability at 40 µM / IC50: Homo sapiens; for IC50: NCI-H1975
Protocol: as §1, §2

COc1cc(C(c2cc(C(=O)C=Cc3ccc(O)cc3)c(O)c(CC=C(C)C)c2O)N2CCOCC2)cc(OC)c1OC (centres unmarked) [Compound 16, (E)-1-(2,4-Dihydroxy-3-(3-methylbut-2-en-1-yl)-5-(morpholino(3,4,5-trimethoxyphe-nyl)methyl)phenyl)-3-(4-hydroxyphenyl)prop-2-en-1-one]
Intracellular ROS level enhancement ([1]; H1975, 10 μM, 6 h): 1.86% | Intracellular ROS level enhancement ([1]; H1975, 20 μM, 6 h): 2.21% | Intracellular ROS level enhancement ([1]; H1975, 40 μM, 6 h): 3.74% | Intracellular ROS level enhancement ([1]; H1975, 80 μM, 6 h): 5.82% | Intracellular ROS level enhancement ([1]; H1975, compound 16 (40 μM) alone, Figure 6(E)): 3.75% | Intracellular ROS level enhancement ([1]; H1975, compound 16 (40 μM) in combination with NAC (20 μM), Figure 6(E)): 2.02% | IC50 at 72 h [2]: 10.1 ± 0.58 µM | SI value (selective inhibition) [3]: 2.32 | Cellular ATP levels [4]: gradually decreased | IC50 [5]: 16.1 µM | Cell death rate (Annexin V/PI) ([6]; H1975, 10 μM): 14.7% | Cell death rate (Annexin V/PI) ([6]; H1975, 20 μM): 22.7% | Cell death rate (Annexin V/PI) ([6]; H1975, 40 μM): 34.3% | Cell death rate (Annexin V/PI) ([6]; H1975, 80 μM): 54.9% | Colony formation rate ([7]; H1975, 1 μM): 51.34% | Colony formation rate ([7]; H1975, 2 μM): 27.70% | Colony formation rate ([7]; H1975, 4 μM): 14.87% | Enhancement of cytotoxic effects compared to IBC [8]: 1.53 fold | IC50 ([8]; Homo sapiens, 72 h, MTT): 14.2 µM | RIP1 protein levels ([9]; H1975, 20, 40, and 80 µM): down-regulation | Bax and Cyt C expression ([9]; H1975, 24 h): increasing | Bcl-2 and Akt protein levels ([9]; H1975, 24 h): decreasing | Caspase-9 and -3 ([9]; H1975, 24 h): cleaving | Expression of RIP3, p-RIP3, MLKL, and p-MLKL protein levels ([9]; H1975, 24 h): increased | Effect of NAC on compound 16 induced cell death (cell viability) ([10]; H1975, compound 16 (40 μM) 24 h, pre-treatment with NAC, p < 0.01, Figure 6(F)): protective effect | Effect of NSA (MLKL inhibitor) on compound 16 induced necroptosis (cell viability) ([10]; H1975, compound 16 (40 μM) 24 h, pre-treatment with NSA (20 μM), p < 0.01): protective effect | Cell viability ([10]; H1975, compound 16 (40 μM) 24 h with pre-treatment with Nec-1 (20 μM), Figure 4(D)): 25.33% | viability at 40 µM ([10]; NCI-H1975, 24 h, H1975, compound 16 (40 μM) alone, 24 h, Figure 3(C)): 12.7% | viability at 40 µM ([10]; NCI-H1975, 24 h, H1975, compound 16 (40 μM) alone, 24 h, Figure 4(D)): 14.8% | viability at 40 µM ([10]; NCI-H1975, H1975, compound 16 (40 μM) 24 h with pre-treatment with z-VAD-FMK (20 μM), Figure 3(C)): 35.4% | IC50 ([10]; H1975 cells, 72 h, MTT, read-out: Cytotoxic activity IC50, H1975): 4.35 µM | IC50 ([10]; read-out: IC50 values against H1975 and A549 cell lines (range over both)): 4.35 to 15 µM
